Measured values from patent US20180072675A1, “ANTIMICROBIAL PYRIDINOHYDRAZIDE AND HYDRAZOMETHYLPYRIDINE-BASED AGENTS” (Board of Supervisors of Louisiana State University and …, priority 2015, published 2018).
Converted amounts (≈) assume the structure as drawn.

What was measured:
[1] = tested on: C. albicans clinical isolate 1 (TW1); assay: MIC80 fungal growth inhibition, clinical isolate TW1; type: cell-based, Candida albicans; conditions: Azole-susceptible, >80% growth inhibition, visual scoring; for MIC80: Candida albicans, read-out: MIC80 TW1
Procedure: (§1) The antifungal activity of the pyridinohydrazide and hydrazomethylpyridine derivatives described in the s were evaluated in vitro using Candida albicans (ATCC Accession No. 10231) and Candida glabrata (ATCC Accession No. 48435). In addition, the compounds were evaluated for activity against two previously-described clinical isolates of C. albicans known to have developed azole-resistance. These isolates were obtained over a two year period from a single AIDS patient and the development of the azole-resistance mechanisms have been extensively characterized (White T C. Antimicrob. Agents Chemother. (1997) 41: 1482-1487). MIC assays were performed on the clinical isolates 1 and 17 (annotated TW1 and TW17, respectively), where isolate 1 was used as an azole-susceptible control and isolate 17 was considered azole-resistant. All assays were done in accordance with NCCLS reference documents (Clinical Laboratory and Standards Institute. Reference method for Broth Dilution Antifungal Susceptibility Testing of Yeasts: Approved Standard. M27-A3 2010; 28). The results of these screenings are summarized in Tables 1-9 (Examples 20-27) as the minimum concentrations that inhibited more than 80% of fungal growth (MIC80) as compared to positive controls containing 1% DMSO. Assays were performed in HEPES-buffered RPMI-1640 media. All MIC screens used a visual scoring method as opposed to spectroscopic analysis, due to the altered absorbance spectra of many of the compounds.

[2] = tested on: Candida albicans (ATCC Accession No. 10231); assay: MIC80 fungal growth inhibition, C. albicans ATCC 10231; type: cell-based; conditions: Azole-susceptible, >80% growth inhibition, visual scoring; for MIC80: Candida albicans, ATCC10231, read-out: MIC80 C. albicans ATCC No. 10231
Procedure: as §1

[3] = tested on: C. albicans clinical isolate 17 (TW17); assay: MIC80 fungal growth inhibition, clinical isolate TW17; type: cell-based, Candida albicans; conditions: for MIC80 TW17 / MIC80: Azole-resistant, >80% growth inhibition, visual scoring; for MIC80: Candida albicans, read-out: MIC80 TW17
Procedure: as §1

[4] = tested on: Candida glabrata (ATCC Accession No. 48435); assay: MIC80 fungal growth inhibition, C. glabrata ATCC 48435; type: cell-based; conditions: for MIC80 C. glabrata ATCC No. 48435 / MIC80: Azole-resistant, >80% growth inhibition, visual scoring; for MIC80: Nakaseomyces glabratus, ATCC48435, read-out: MIC80 C. glabrata ATCC No. 48435
Procedure: as §1

[5] = tested on: Candida strain TW17; assay: Time-kill assay; type: cell-based, Candida albicans; conditions: four times the MIC for TW17, 48 h
Procedure: FIG. 9 illustrates time-kill assays, for representative analogs that were active against the azole-resistant TW17, to determine the cidal or static nature of the analog tested. 100 μl of each sample was spread onto YM agar plates with a sterile bent spreading rod. Plates were incubated at 35° C. overnight and colonies were then counted on each plate.
One of the objectives of this study was to determine the cidal or static nature of the analogs that were active against such as TW17, the azole-resistant clinical isolate. Azoles affect Candida spp. by inhibiting ergosterol biosynthesis, and ultimately prevent their reproduction. This effect has led to the classification of azoles as fungistats. Determining the fungistatic or fungicidal nature of the synthesized compounds of the present disclosure allows a comparison to azoles, in addition to improving the understanding of how the structural motifs might lend toward an alternate mechanism of action. Therefore, time-kill assays were performed using the representative analogs that were active against the azole-resistant TW17 at concentrations at or below 8 μg/mL.
Solid drugs were dissolved in DMSO to a concentration of 10 mg/ml. This stock solution was then further diluted in water to the desired experimental concentration, determined to be four times that of the MIC for the Candida strain TW17 (as reported in the Tables).
Individual colonies of TW17 were suspended in 5 ml of sterile water and adjusted to achieve a McFarland reading between 0.08 and 0.12. The inoculum was then further diluted in sterile water at a ratio of 1:100. Three […] tissue culture tubes were prepared by combining 2.5 ml of above diluted inoculum, 21.7 ml of HEPES buffered RPMI-1640 media, and 800 μl of experimental drug dilution. A “Growth Control” tube was prepared by combining 2.5 ml of inoculum, 21.7 HEPES buffered RPMI-1640 media, and 800 μl of water-DMSO solution equal to the DMSO concentration of the experimental drug dilution. A “Sterile Control” tube was prepared by combining 24.2 ml of HEPES-buffered RPMI-1640 media and 800 μl of water-DMSO solution as in the “Growth Control”. All tubes were incubated for 48 hours at 35° C., 50 rpm. 500 μl samples were taken from the tubes at time points of predetermined intervals during this incubation.
Time points for the “Kill-Curve” and “Growth Control” tubes were taken at 0, 1, 2, 4, 6, 8, 24, and 48 h after the start of incubation. Time points for “Sterile Control” were taken at 0 and 48 hours. Each time point sample was serially diluted 1:10 in sterile 0.9% NaCl solution up to 5 times. 100 μl of each sample was spread onto YM agar plates with a sterile bent spreading rod. Plates were incubated at 35° C. overnight and colonies were then counted on each plate. Colonies on plates from diluted time points were used to estimate uncountable undiluted samples. The number of colonies in undiluted samples was estimated to be 10^n times greater than the diluted sample, where n was the number of dilutions made.

[6] = tested on: Candida albicans ATCC Accession No. 10231; assay: Checkerboard synergy assay with fluconazole; type: cell-based
Procedure: Considering that two different modes of activity (cidal and static) were observed depending on the structural motifs present in our analogs, we performed a series of checkerboard assays to determine if representative active compounds were in fact acting in synergy with the azole, fluconazole. Each of these assays tested multiple concentrations of the selected analog in the presence of multiple concentrations of fluconazole. All checkerboard assays were prepared in 96-well plates. 200 μl of previously prepared drug solutions were added to each well in column 2. Using a multichannel pipette, 100 μl from each well in column 2 was serially diluted (1:2) horizontally across the plate, stopping at column 10. Contents of each well were mixed thoroughly. Column 11 was reserved for fluconazole MIC control and contained no other drug. 100 μl of media was added to each well, column 2-10. Each well was mixed thoroughly with a multichannel pipette. 100 μl was then removed and discarded from these wells. 100 μl of previously prepared fluconazole dilution was added to each well in row B. Using a multichannel pipette, 100 μl from each well was serially diluted (1:2) vertically down the plate, stopping at row F. Contents of each well were mixed thoroughly. Row G was reserved for tested drug MIC control and contained no fluconazole. Well G11 contained neither drug and served as a drug-free growth control. The final 100 μl from each well in row F was discarded.
The fungal samples were prepared from glycerol stocks of Candida albicans ATCC Accession No. 10231. The inoculum's concentration was adjusted to a McFarland standard between 0.08 and 0.12. Inoculum was then diluted at a ratio of 1:37.5 in buffered media. 100 μl of inoculum-media solution was added to each well. Following inoculation, the 96-well plates were wrapped in parafilm to prevent evaporation and incubated for overnight at 35° C. After 18 h, the wells showing growth were recorded.
Synergistic activity was determined based on the MIC read from these plates. The fractional inhibitory concentration (FIC) for a given well is the ratio of the minimum inhibitory concentration of one drug A in the presence another drug B to the minimum inhibitory concentration with only drug A. The FIC was calculated for the test drug in each of the wells along the growth/no-growth interface at varying concentrations of fluconazole, then these values were averaged to determine the average FIC for the test drug. The same process was used to calculate the average FIC for fluconazole at varying concentrations of the test drug. The sum of these two FICs gives the FIC index which can be used to determine the synergistic effect between the two drugs (Hsieh et al., Diagn. Microbiol. Infect. Dis. (1993) 16: 343-349). An FIC index value less than 1 indicated synergistic interactions between the two drugs while an FIC index value greater than or equal to 1 indicated antagonistic interactions.

Structure (SMILES)	MIC80 TW1 [1]	MIC80 C. albicans ATCC No. 10231 [2]	MIC80 TW17 [3]	MIC80 C. glabrata ATCC No. 48435 [4]	MIC80 [1]	MIC80 [2]	MIC80 [4]	other results
O=C(NN=Cc1cc(Br)ccc1O)c1cccnc1 [AR11]	8 mg/L (≈ 25 µM)	4 mg/L (≈ 12.5 µM)	16 mg/L (≈ 50 µM)	16 mg/L (≈ 50 µM)	–	–	–	–
O=C(N/N=C/c1ccccc1O)c1cccnc1 [AR7]	–	–	–	–	4 mg/L (≈ 16.6 µM)	4 mg/L (≈ 16.6 µM)	16 mg/L (≈ 66.3 µM)	MIC80 [3]: 31 mg/L (≈ 128 µM)
O=C(NN=Cc1ccccn1)c1cccnc1 [AR35]	62 mg/L (≈ 274 µM)	125 mg/L (≈ 553 µM)	62 mg/L (≈ 274 µM)	125 mg/L (≈ 553 µM)	–	–	–	–
O=C(NN=Cc1ccccc1O)c1ccncc1 [AR13]	4 mg/L (≈ 16.6 µM)	8 mg/L (≈ 33.2 µM)	31 mg/L (≈ 128 µM)	16 mg/L (≈ 66.3 µM)	–	–	–	–
O=C(NN=Cc1cc(Br)ccc1O)c1ccncc1 [AR17]	16 mg/L (≈ 50 µM)	16 mg/L (≈ 50 µM)	125 mg/L (≈ 390 µM)	64 mg/L (≈ 200 µM)	–	–	–	–
Cc1ccc(O)c(/C=N/NC(=O)c2cccnc2O)c1 [AR20]	–	–	–	–	–	–	2 mg/L (≈ 7.37 µM)	–
O=C(N/N=C/c1cc([N+](=O)[O-])ccc1O)c1ccc[n+]([O-])c1 [AR28]	4 mg/L (≈ 13.2 µM)	8 mg/L (≈ 26.5 µM)	2 mg/L (≈ 6.62 µM)	4 mg/L (≈ 13.2 µM)	–	–	–	Cidal vs Static [5]: Static; activity against azole-resistant TW17 [3]: 2 µM; FIC Fluc ([6]; average FIC of fluconazole at varying concentrations of the test drug): 1.00; FIC Test ([6]; average FIC of the test drug at varying concentrations of fluconazole): 1.00; Activity (interaction with fluconazole) ([6]; from FIC index): Antagonistic; FIC Index ([6]; sum of the two FICs, <1 synergistic, >=1 antagonistic): 2.00
COc1ccc(O)c(/C=N/NC(=O)c2ccncc2)c1 [AR15]	–	–	–	–	16 mg/L (≈ 59 µM)	4 mg/L (≈ 14.7 µM)	4 mg/L (≈ 14.7 µM)	MIC80 [3]: 16 mg/L (≈ 59 µM)
COc1ccc(O)c(/C=N/NC(=O)c2cccnc2)c1 [AR9]	16 mg/L (≈ 59 µM)	62 mg/L (≈ 229 µM)	4 mg/L (≈ 14.7 µM)	4 mg/L (≈ 14.7 µM)	–	–	–	–
O=C(NN=Cc1ccccn1)c1ccccc1 [AR31]	31 mg/L (≈ 138 µM)	62 mg/L (≈ 275 µM)	62 mg/L (≈ 275 µM)	62 mg/L (≈ 275 µM)	–	–	–	–
O=C(N/N=C/c1ccccc1O)c1ccccn1 [AR1, (E)-N′-(2-hydroxybenzylidene)picolinohydrazide]	–	–	–	–	62 mg/L (≈ 257 µM)	16 mg/L (≈ 66.3 µM)	8 mg/L (≈ 33.2 µM)	–
Cc1ccc(O)c(C=NNC(=O)c2ccc[n+]([O-])c2)c1 [AR24]	16 mg/L (≈ 59 µM)	16 mg/L (≈ 59 µM)	16 mg/L (≈ 59 µM)	31 mg/L (≈ 114 µM)	–	–	–	–
O=C(NN=Cc1ccccc1O)c1ccc[n+]([O-])c1 [AR23]	31 mg/L (≈ 121 µM)	31 mg/L (≈ 121 µM)	31 mg/L (≈ 121 µM)	16 mg/L (≈ 62.2 µM)	–	–	–	–
COc1ccc(O)c(/C=N/NC(=O)c2ccc[n+]([O-])c2)c1 [AR25]	–	–	–	–	62 mg/L (≈ 216 µM)	16 mg/L (≈ 55.7 µM)	4 mg/L (≈ 13.9 µM)	MIC80 [3]: 31 mg/L (≈ 108 µM)
O=C(N/N=C/c1cc(Cl)ccc1O)c1cccnc1 [AR10]	–	–	–	–	8 mg/L (≈ 29 µM)	4 mg/L (≈ 14.5 µM)	8 mg/L (≈ 29 µM)	MIC80 [3]: 62 mg/L (≈ 225 µM)
O=C(NN=Cc1ccccn1)c1ccc[n+]([O-])c1 [AR38]	62 mg/L (≈ 256 µM)	125 mg/L (≈ 516 µM)	125 mg/L (≈ 516 µM)	125 mg/L (≈ 516 µM)	–	–	–	–
O=C(NN=Cc1cc(Cl)ccc1O)c1ccncc1 [AR16]	16 mg/L (≈ 58 µM)	31 mg/L (≈ 112 µM)	125 mg/L (≈ 453 µM)	16 mg/L (≈ 58 µM)	–	–	–	–
O=C(NN=Cc1ccccn1)c1ccncc1 [AR36]	62 mg/L (≈ 274 µM)	125 mg/L (≈ 553 µM)	125 mg/L (≈ 553 µM)	125 mg/L (≈ 553 µM)	–	–	–	–
O=C(NN=Cc1cc(Br)ccc1O)c1cccnc1O [AR22]	–	–	–	0.5 mg/L (≈ 1.49 µM)	–	–	–	potency against Candida glabrata (in words) [4]: one of the most potent compounds
O=C(NN=Cc1ccccn1)c1ccccc1O [AR32]	31 mg/L (≈ 128 µM)	31 mg/L (≈ 128 µM)	62 mg/L (≈ 257 µM)	4 mg/L (≈ 16.6 µM)	–	–	–	–
O=C(N/N=C/c1cc(Cl)ccc1O)c1ccc[n+]([O-])c1 [AR26]	–	–	–	–	31 mg/L (≈ 106 µM)	16 mg/L (≈ 54.9 µM)	4 mg/L (≈ 13.7 µM)	MIC80 [3]: 31 mg/L (≈ 106 µM)
COc1ccc(O)c(/C=N/NC(=O)c2ccccn2)c1 [AR3, (E)-N′-(2-Hydroxy-5-methoxybenzylidene)picolinohydrazide]	–	–	–	–	8 mg/L (≈ 29.5 µM)	4 mg/L (≈ 14.7 µM)	1 mg/L (≈ 3.69 µM)	MIC80 [3]: 31 mg/L (≈ 114 µM)
Cc1ccc(O)c(C=NNC(=O)c2ccncc2)c1 [AR14]	16 mg/L (≈ 62.7 µM)	4 mg/L (≈ 15.7 µM)	31 mg/L (≈ 121 µM)	31 mg/L (≈ 121 µM)	–	–	–	–
